Data on four compounds can be found in patent US6844465B2, “Method for preparing highly stable crystals of aspartame derivative” (Ajinomoto Co., Inc., priority 1998, dated 2005).

Each structure is given as a SMILES string.

Data set [1] in a line: Stability test at 70° C. of crystals (remaining ratio of N-(3,3-dimethylbutyl)-APM). The data set is classed as physicochemical. As to the method: Then, the obtained G-type crystals, D-type crystals and A-type crystals of N-(3,3-dimethylbutyl)-APM were tested at 70° C., concerning their stability. […] The relationship between the storage time and the remaining ratio of N-(3,3-dimethylbutyl)-APM in this test will be shown below in Table 1.

The conditions of data set [2]: on the weight basis, cited from earlier work.

With `COC(=O)[C@H](Cc1ccccc1)NC(=O)[C@H](CC(=O)O)NCCC(C)(C)C` [A-type crystals, N-[N-(3,3-dimethylbutyl)-L-α-aspartyl]-L-phenylalanine methyl ester], the “Remaining Ratio (wt. %)” value is given as 95 wt. % in data set [1] (time elapsed 0 hrs, listed as A); 94 wt. % in data set [1] (time elapsed 100 hrs, listed as A); 96 wt. % in data set [1] (time elapsed 271 hrs); 96 wt. % in data set [1] (time elapsed 271 hrs, listed as A).
With `COC(=O)[C@H](Cc1ccccc1)NC(=O)[C@H](CC(=O)O)NCCC(C)(C)C` [D-type crystals, N-[N-(3,3-dimethylbutyl)-L-α-aspartyl]-L-phenylalanine methyl ester], the “Remaining Ratio (wt. %)” value in data set [1] (time elapsed 0 hrs, listed as D) stood at 95 wt. %; in data set [1] (time elapsed 100 hrs, listed as D) it was 96 wt. %; in data set [1] (time elapsed 271 hrs), 77 wt. %; in data set [1] (time elapsed 271 hrs, listed as D) it was 77 wt. %.
Turning to `COC(=O)[C@H](Cc1ccccc1)NC(=O)[C@H](CC(=O)O)NCCC(C)(C)C` [G-type crystals, N-[N-(3,3-dimethylbutyl)-L-α-aspartyl]-L-phenylalanine methyl ester], the “Remaining Ratio (wt. %)” value was found to be 96 wt. % in data set [1] (time elapsed 0 hrs, listed as G); 48 wt. % in data set [1] (time elapsed 100 hrs, listed as G); 18 wt. % in data set [1] (time elapsed 271 hrs); 18 wt. % in data set [1] (time elapsed 271 hrs, listed as G).
Consider `COC(=O)[C@H](Cc1ccccc1)NC(=O)[C@H](CC(=O)O)NCCC(C)(C)C` [N-(3,3-dimethylbutyl)-ATM, N-[N-(3,3-dimethylbutyl)-L-α-aspartyl]-L-phenylalanine methyl ester], for which the “sweetening potency relative to aspartame” value in data set [2] (times that of aspartame) was “at least 50 times”. In addition, in data set [2] (times that of sucrose), the “sweetening potency relative to sucrose (table sugar)” value is listed as “about 10,000 times”.
